11 compounds from ChEMBL document CHEMBL1147006, “Synthesis, characterization and antiamoebic activity of 1-(thiazolo[4,5-b]quinoxaline-2-yl)-3-phenyl-2-pyrazoline derivatives” (Bioorg Med Chem Lett, 2006) can be followed below.

By IC50 is commonly meant the point on the concentration scale where inhibition reaches its midpoint. Higher therefore signals weaker potency in that assay.

This test concerns Entamoeba histolytica. The test is described as follows: Antiamoebic activity against Entamoeba histolytica HM-1:IMSS. Type of test: functional, organism-based.
Compound `Cc1ncc([N+](=O)[O-])n1CCO` [METRONIDAZOLE] yielded an IC50 of 1.69 µM. This lies in the single-digit micromolar range.

`CC1CN(c2nc3nc4ccccc4nc3s2)N=C1c1ccccc1` (stereo unspecified) displayed an IC50 of 2.34 µM.

With `Clc1cccc(C2=NN(c3nc4nc5ccccc5nc4s3)CC2)c1`, inhibition was half-maximal at 1.09 µM (IC50).

The compound `NC(=S)N1CCC(c2ccccc2)=N1` showed a 50% inhibitory concentration (IC50) of 17.2 µM.

In turn, `NC(=S)N1CCC(c2cccc(Cl)c2)=N1` came in with a half-maximal inhibitory concentration (IC50) of 8.7 µM.

The compound `CC1CN(c2nc3nc4ccccc4nc3s2)N=C1c1cccc(Br)c1` (stereo unspecified) registered a 50% inhibitory concentration (IC50) of 1.45 µM.

`CC1CN(c2nc3nc4ccccc4nc3s2)N=C1c1cccc(Cl)c1` (stereo unspecified) displayed an IC50 of 0.72 µM. Compared with the last compound, the IC50 is about 2-fold lower.

For `Brc1cccc(C2=NN(c3nc4nc5ccccc5nc4s3)CC2)c1`, the midpoint of inhibition, the IC50, lay at 4.98 µM.

Turning to `c1ccc(C2=NN(c3nc4nc5ccccc5nc4s3)CC2)cc1`, half-maximal inhibition (IC50) was put at 6.76 µM.

The compound `CC1CN(C(N)=S)N=C1c1ccccc1` (stereo unspecified) registered an IC50 of 10.2 µM.

Take `NC(=S)N1CCC(c2cccc(Br)c2)=N1`: the IC50 is 13.2 µM. This IC50 and that of the compound before are within 1.5-fold of each other.
